Measured values: patent publication US20210395226A1, “SUBSTITUTED ARYL COMPOUND AND PREPARATION METHOD THEREFOR AND USE THEREOF” (SICHUAN KELUN-BIOTECH BIOPHARMACEUTICAL CO., LTD., priority 2018, published 2021)
Read-outs that look alike come from different tables or passages of the source.

What was measured:
[1] = molecular target: T1, Adenosine A1 receptor (human) membrane (Homo sapiens, UniProt P30542); test: Determination of competitive inhibition constant (Ki) for adenosine A1 receptor, [3H]-DPCPX radioligand; assay type: binding; conditions: 1.0 nM [3H]-DPCPX
T1 construct: purchased PerkinElmer ES-010-M400UA
T1 sequence (P30542 1-326): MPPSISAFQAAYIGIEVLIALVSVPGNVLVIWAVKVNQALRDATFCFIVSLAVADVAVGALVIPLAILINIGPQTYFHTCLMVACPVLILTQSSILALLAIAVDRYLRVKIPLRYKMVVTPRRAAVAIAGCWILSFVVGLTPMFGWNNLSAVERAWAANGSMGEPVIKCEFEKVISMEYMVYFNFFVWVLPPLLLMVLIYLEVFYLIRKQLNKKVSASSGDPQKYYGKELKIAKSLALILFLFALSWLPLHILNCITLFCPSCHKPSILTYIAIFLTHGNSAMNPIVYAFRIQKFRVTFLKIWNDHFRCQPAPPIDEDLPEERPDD
Method in brief: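 Human A1 receptor membranes (2.5 μg/well) incubated with 1.0 nM [3H]-DPCPX and test compound for 1 h at room temperature in HEPES/MgCl2/CaCl2/NaCl buffer, pH 7.4; 1000 nM CGS-15943 defined low control. Bound radioactivity collected on PEI-treated GF/C filters and counted; IC50 converted to Ki via Cheng–Prusoff using ligand Kd.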

[2] = Pharmacokinetics (PK) and distribution in brain tissue in rats; assay type: in vivo, male SD rats; conditions: for bioavailability / Cmax / AUC(0-t): male, SD; for bioavailability: plasma, oral 5 mg/kg compared with intravenous 1 mg/kg; for bioavailability / Plasma AUClast/brain AUClast: rat; for Cmax / AUC(0-t): rat plasma; for AUClast (brain): rat brain tissue
Description: Test Example 3: Study on Pharmacokinetics (PK) and Distribution in Brain Tissue in Rats
The compounds of the present application were administered to male SD rats by intravenous (IV) and intragastric (PO) respectively to investigate the pharmacokinetic characteristics. The dosages of IV and PO were 1 mg/kg and 5 mg/kg, respectively. The solvent for IV was a mixture of 5% DMSO, 5% Solutol (polyethylene glycol 15-hydroxystearate) and 90% saline, and the solvent for PO was 0.5% MC (methyl cellulose sodium). Before IV administration (0 h) and at 0.083 h, 0.25 h, 0.5 h, 1 h, 2 h, 4 h, 6 h, 8 h and 24 h time points after administration, blood samples were collected; before PO administration (0 h) and at 0.25 h, 0.5 h, 1 h, 2 h, 4 h, 6 h, 8 h and 24 h time points after administration, blood samples were collected; the blood samples were anticoagulated with EDTA.K2, and centrifuged to obtain plasma samples. For Compound 11, brain tissue samples were taken and homogenized at 0.25 h, 0.5 h, 1 h, 4 h and 8 h; for Compounds 19 and 32, and brain tissue samples were taken and homogenized at 0.25 h, 0.5 h, 1 h and 8 h (three SD rats were selected for the experiment of distribution in brain tissue at each time point), and the resulting brain tissue homogenate samples were stored at −80° C. The plasma samples and brain tissue homogenate samples were subjected to precipitation of protein, and then LC-MS/MS analysis was performed.
Pharmacokinetic parameters were calculated by means of non-compartmental model by using WinNonlin 6.3 software.

[3] = PO, 5 mg/kg, read-out: AUClast (plasma)

| Ki [1] [nM] | bioavailability [2] [%] | Cmax ([2]; IV, 1 mg/kg) [ng/mL] | AUC(0-t) ([2]; IV, 1 mg/kg, read-out: AUClast) [ng·h/mL] | AUC(0-t) [2, 3] [ng·h/mL] | AUClast (brain) ([2]; PO, 5 mg/kg) [ng·h/g] | Plasma AUClast/brain AUClast ([2]; PO, 5 mg/kg) | Compound |
| --- | --- | --- | --- | --- | --- | --- | --- |
| 1400 | 86.8 | 1150 | 2630 | 11400 | 70.2 | 163/1 | Cc1cc(-c2cnc(NC(=O)N3CCOCC3)nc2-c2ccc(F)cc2)cc(Cl)n1 [Compound 19, N-(5-(2-chloro-6-methylpyridin-4-yl)-4-(4-fluorophenyl)pyrimidin-2-yl) morpholine-4-carboxamide] |
| 204 | 65.3 | 1310 | 985 | 3220 | 11.4 | 282/1 | Cc1ncnc2ccc(-c3cnc(NC(=O)N4CCOCC4)nc3-c3ccc(F)cc3)cc12 [Compound 11, N-(4-(4-fluorophenyl)-5-(4-methylquinazolin-6-yl)pyrimidin-2-yl) morpholine-4-carboxamide] |
